From US20100069341A1, “TETRAHYDRO-PYRANOPYRAZOLE CANNABINOID MODULATORS” (priority 2005, published 2010)
pIC50: −log10 of the molar value. Read-outs that look alike come from different tables or passages of the source.

Columns and labels:
Cannabinoid CB1 Receptor = molecular target: T1, Cannabinoid CB1 Receptor (Homo sapiens, UniProt P21554); assay: Binding assay, cannabinoid CB1 receptor ([3H]-CP-55,940 displacement, SK-N-MC cell membranes); conditions: for inhibition at 0.2 µM: read-out: Cannabinoid CB1 Receptor Binding, percent inhibition
T1 construct: expressed in transfected cells; semi-purified membrane pellet
T1 sequence (P21554 whole entry): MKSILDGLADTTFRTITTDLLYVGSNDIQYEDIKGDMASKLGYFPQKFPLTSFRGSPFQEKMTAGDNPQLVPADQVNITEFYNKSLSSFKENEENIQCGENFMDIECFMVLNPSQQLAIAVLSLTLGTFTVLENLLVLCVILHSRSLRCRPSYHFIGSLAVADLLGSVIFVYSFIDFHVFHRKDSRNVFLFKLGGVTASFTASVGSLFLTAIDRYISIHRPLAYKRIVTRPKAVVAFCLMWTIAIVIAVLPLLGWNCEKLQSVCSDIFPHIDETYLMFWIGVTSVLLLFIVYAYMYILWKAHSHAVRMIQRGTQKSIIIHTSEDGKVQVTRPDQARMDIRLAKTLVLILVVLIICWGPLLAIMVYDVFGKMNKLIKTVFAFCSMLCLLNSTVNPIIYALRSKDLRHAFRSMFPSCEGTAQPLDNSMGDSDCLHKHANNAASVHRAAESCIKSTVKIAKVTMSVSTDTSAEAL
Description: (§1) Binding Assay for CB1 or CB2 Agonists or Inverse Agonists
(§2) The human CB1 and CB2 receptors were stably expressed in SK-N-MC cells transfected with pcDNA3 CB-1 (human) or pcDNA3 CB-2 (human). The cells were grown in T-180 cell culture flasks under standard cell culture conditions at 37° C. in a 5% CO2 atmosphere. The cells were harvested by trysinization and homogenized in a homogenization buffer (10 mM Tris, 0.2 mM MgCl2, 5 mM KCl, with protease inhibitors aprotinin, leupeptin, pepstatin A and bacitracin) and centrifuged (2000 g). The supernatant was then centrifuged in 2M sucrose (31,300 g) to produce a semi-purified membrane pellet. The pellet was resuspended in homogenization and store at −80° C.
On the day of the assay, the pellet was thawed on ice and diluted in assay buffer (50 mM Tris-HCl, 5 mM MgCl2, 2.5 mM EDTA, 0.5 mg/mL fatty acid free bovine serum albumin, pH 7.5). […] The plate was covered and incubated for 90 minutes at 30° C. The contents were then aspirated onto a Packard Unifilter GF/C filter bottom plate prewet with 0.5% polyethyleneimine. The wells of the polypropylene plate were rinsed and aspirated seven times with a 0.9% saline-0.5% Tween 20 solution. The Unifilter plate was dried, a scintillation cocktail was added to each well and the counts representing binding were quantitated in a TopCount scintillation counter.
(§3) For compounds tested, an IC50 binding value was obtained from percent inhibition studies in which various test concentrations were used. The binding value (in μM) was calculated by linear regression.

Cannabinoid CB2 Receptor = molecular target: T2, Cannabinoid CB2 Receptor (Homo sapiens, UniProt P34972); assay: Binding assay, cannabinoid CB2 receptor ([3H]-CP-55,940 displacement, SK-N-MC cell membranes); conditions: test concentration of 0.2 μM; human CB2 in SK-N-MC membranes; read-out: Cannabinoid CB2 Receptor Binding, percent inhibition
T2 construct: expressed in transfected cells; semi-purified membrane pellet
T2 sequence (P34972 whole entry): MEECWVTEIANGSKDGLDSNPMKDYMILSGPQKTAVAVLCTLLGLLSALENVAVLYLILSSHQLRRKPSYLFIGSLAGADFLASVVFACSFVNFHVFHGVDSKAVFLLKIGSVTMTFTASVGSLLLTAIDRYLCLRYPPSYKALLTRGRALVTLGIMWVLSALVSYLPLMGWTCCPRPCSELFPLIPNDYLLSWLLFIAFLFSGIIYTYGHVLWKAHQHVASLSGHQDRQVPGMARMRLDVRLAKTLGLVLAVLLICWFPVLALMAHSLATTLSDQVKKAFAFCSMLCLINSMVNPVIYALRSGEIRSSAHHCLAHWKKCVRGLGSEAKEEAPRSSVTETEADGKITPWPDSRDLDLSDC
Description: as §1, §2
On the day of the assay, the pellet was thawed on ice and diluted in assay buffer (50 mM Tris-HCl, 5 mM MgCl2, 2.5 mM EDTA, 0.5 mg/mL fatty acid free bovine serum albumin, pH 7.5). The diluted membrane was added with buffer, test compound or standard and the radioligand [H]^3+-CP-55,940 (0.2 nM) to the wells of a 96-well polypropylene plate. Non-specific binding was measured in wells containing 10 uM WIN 55,212. The plate was covered and incubated for 90 minutes at 30° C. The contents were then aspirated onto a Packard Unifilter GF/C filter bottom plate prewet with 0.5% polyethyleneimine. The wells of the polypropylene plate were rinsed and aspirated seven times with a 0.9% saline-0.5% Tween 20 solution. The Unifilter plate was dried, a scintillation cocktail was added to each well and the counts representing binding were quantitated in a TopCount scintillation counter.
as §3, with “regression. For compounds without an IC50 binding value, the percent inhibition (in %) was obtained at a test concentration of 0.2 μM.” for “regression.”

[1] = test concentration of 0.2 μM, human CB1 in SK-N-MC membranes

Structure (SMILES) | inhibition at 0.2 µM (Cannabinoid CB1 Receptor; [1]) [%] | inhibition at 0.2 µM (Cannabinoid CB2 Receptor) [%] | pIC50 (Cannabinoid CB1 Receptor) | inhibition at 0.2 µM (Cannabinoid CB1 Receptor) [%]
C[C@H](NC(=O)c1nn(-c2ccc(Cl)cc2Cl)c2c1COC/C2=C\c1ccc(F)cc1)c1ccccc1 [Cpd 1, (7Z)-1-(2,4-dichloro-phenyl)-7-(4-fluoro-benzylidene)-1,4,6 7-tetrahydro-pyrano[4,3-c]pyrazole-3-carboxylic acid [(1S)-1-phenyl-ethyl]-amide] | 54 | 6 |  | 
C[C@@H](NC(=O)c1nn(-c2ccc(Cl)cc2Cl)c2c1COC/C2=C\c1ccc(F)cc1)c1ccccc1 [Cpd 2, (7 Z)-1-(2,4-dichloro-phenyl)-7-(4-fluoro-benzylidene)-1,4,6,7-tetrahydro-pyrano[4,3-c]pyrazole-3-carboxylic acid [(1R)-1-phenyl-ethyl]-amide] | 87 | 23 | 7.89 | 
O=C(N[C@@H]1CCC[C@H]1O)c1nn(-c2ccc(Cl)cc2Cl)c2c1COC/C2=C\c1ccc(F)cc1 [Cpd 3, (7Z)-1-(2,4-dichloro-phenyl)-7-(4-fluoro-benzylidene)-1,4,6,7-tetrahydro-pyrano[4,3-c]pyrazole-3-carboxylic acid [(1R,2R)-2-hydroxy-cyclopentyl]-amide] | 32 | 0 |  | 
O=C(N[C@H]1c2ccccc2C[C@H]1O)c1nn(-c2ccc(Cl)cc2Cl)c2c1COC/C2=C\c1ccc(F)cc1 [Cpd 4, (7Z)-1-(2,4-dichloro-phenyl)-7-(4-fluoro-benzylidene)-1,4,6,7-tetrahydro-pyrano[4,3-c]pyrazole-3-carboxylic acid [(1S,2R)-2-hydroxy-indan-1-yl]-amide] | 64 | 19 |  | 
O=C(N[C@@H]1c2ccccc2C[C@@H]1O)c1nn(-c2ccc(Cl)cc2Cl)c2c1COC/C2=C\c1ccc(F)cc1 [Cpd 5, (7Z)-1-(2,4-dichloro-phenyl)-7-(4-fluoro-benzylidene)-1,4,6,7-tetrahydro-pyrano[4,3-c]pyrazole-3-carboxylic acid [(1R,2S)-2-hydroxy-indan-1-yl)-amide] | 82 | 28 | 7.52 | 
O=C(NCc1ccccn1)c1nn(-c2ccc(Cl)cc2Cl)c2c1COC/C2=C\c1ccc(F)cc1 [Cpd 6, (7Z)-1-(2,4-dichloro-phenyl)-7-(4-fluoro-benzylidene)-1,4,6,7-tetrahydro-pyrano[4,3-c]pyrazole-3-carboxylic acid (pyridin-2-ylmethyl)-amide] | 37 | 25 |  | 
O=C(NN1CCCCC1)c1nn(-c2ccc(Cl)cc2Cl)c2c1COC/C2=C\c1ccc(F)cc1 [Cpd 7, (7Z)-1-(2,4-dichloro-phenyl)-7-(4-fluoro-benzylidene)-1,4,6,7-tetrahydro-pyrano[4,3-c]pyrazole-3-carboxylic acid piperidin-1-ylamide] | 79 | 8 | 7.40 | 
O=C(c1nn(-c2ccc(Cl)cc2Cl)c2c1COC/C2=C\c1ccc(F)cc1)N1CCCCC1 [Cpd 8, (7Z)-[1-(2,4-dichloro-phenyl)-7-(4-fluoro-benzylidene)-1,4,6,7-tetrahydro-pyrano[4,3-c]pyrazol-3-yl]-piperidin-1-yl-methanone] | 45 | 7 |  | 
O=C(NN1CCCC1)c1nn(-c2ccc(Cl)cc2Cl)c2c1COC/C2=C\c1ccc(F)cc1 [Cpd 9, (7Z)-1-(2,4-dichloro-phenyl)-7-(4-fluoro-benzylidene)-1,4,6,7-tetrahydro-pyrano[4,3-c]pyrazole-3-carboxylic acid pyrrolidin-1-ylamide] | 58 | 0 |  | 
O=C(c1nn(-c2ccc(Cl)cc2Cl)c2c1COC/C2=C\c1ccc(F)cc1)N1CCCC1 [Cpd 10, (7Z)-[1-(2,4-dichloro-phenyl)-7-(4-fluoro-benzylidene)-1,4,6,7-tetrahydro-pyrano[4,3-c]pyrazol-3-yl]-pyrrolidin-1-yl-methanone] | 33 | 14 |  | 
O=C(NN1CCCCC1)c1nn(-c2ccc(Cl)cc2)c2c1COC/C2=C\c1ccc(F)cc1 [Cpd 11, (7Z)-1-(4-chloro-phenyl)-7-(4-fluoro-benzylidene)-1,4,6,7-tetrahydro-pyrano[4,3-c]pyrazole-3-carboxylic acid piperidin-1-ylamide] | 55 | 6 |  | 
C[C@@H](NC(=O)c1nn(-c2ccc(Cl)cc2)c2c1COC/C2=C\c1ccc(F)cc1)c1ccccc1 [Cpd 12, (7Z)-1-(4-chloro-phenyl)-7-(4-fluoro-benzylidene)-1,4,6,7-tetrahydro-pyrano[4,3-c]pyrazole-3-carboxylic acid [(1R)-1-phenyl-ethyl]-amide] | 81 | 5 | 7.30 | 
C[C@@H](NC(=O)c1nn(-c2ccc(Cl)cc2)c2c1COC/C2=C\c1ccc(F)cc1)C1CCCCC1 [Cpd 13, (7Z)-1-(4-chloro-phenyl)-7-(4-fluoro-benzylidene)-1,4,6,7-tetrahydro-pyrano[4,3-c]pyrazole-3-carboxylic acid [(1R)-1-cyclohexyl-ethyl]-amide] |  | 25 | 7.70 | 84
CN(C(=O)c1nn(-c2ccc(Cl)cc2)c2c1COC/C2=C\c1ccc(F)cc1)c1ccccc1 [Cpd 14, (7Z)-1-(4-chloro-phenyl)-7-(4-fluoro-benzylidene)-1,4,6,7-tetrahydro-pyrano[4,3-c]pyrazole-3-carboxylic acid methyl-phenyl-amide] | 49 | 7 |  | 
O=C(NN1CC2CCCC2C1)c1nn(-c2ccc(Cl)cc2)c2c1COC/C2=C\c1ccc(F)cc1 (centres unmarked) [Cpd 15, (7Z)-1-(4-chloro-phenyl)-7-(4-fluoro-benzylidene)-1,4,6,7-tetrahydro-pyrano[4,3-c]pyrazole-3-carboxylic acid (hexahydro-cyclopenta[c]pyrrol-2-yl)-amide] | 81 | 18 | 7.10 | 
O=C(NN1CCCC1)c1nn(-c2ccc(Cl)cc2)c2c1COC/C2=C\c1ccc(F)cc1 [Cpd 16, (7Z)-1-(4-chloro-phenyl)-7-(4-fluoro-benzylidene)-1,4,6,7-tetrahydro-pyrano[4,3-c]pyrazole-3-carboxylic acid pyrrolidin-1-ylamide] | 44 | 11 |  | 
O=C(NN1CC2CCCC2C1)c1nn(-c2ccc(Cl)cc2Cl)c2c1COC/C2=C\c1ccc(F)cc1 (centres unmarked) [Cpd 17, (7Z)-1-(2,4-dichloro-phenyl)-7-(4-fluoro-benzylidene)-1,4,6,7-tetrahydro-pyrano[4,3-c]pyrazole-3-carboxylic acid (hexahydro-cyclopenta[c]pyrrol-2-yl)-amide] | 99 | 29 | 7.70 | 
O=C(c1nn(-c2ccc(Cl)cc2)c2c1COC/C2=C\c1ccc(F)cc1)N1CCC[C@@H]1CO [Cpd 18, (7Z)-[1-(4-chloro-phenyl)-7-(4-fluoro-benzylidene)-1,4,6,7-tetrahydro-pyrano[4,3-c]pyrazol-3-yl]-[(2R)-2-hydroxymethyl-pyrrolidin-1-yl]-methanone] | 30 | 14 |  | 
O=C(c1nn(-c2ccc(Cl)cc2)c2c1COC/C2=C\c1ccc(F)cc1)N1CCC[C@H]1CO [Cpd 19, (7Z)-[1-(4-chloro-phenyl)-7-(4-fluoro-benzylidene)-1,4,6,7-tetrahydro-pyrano[4,3-c]pyrazol-3-yl]-[(2S)-2-hydroxymethyl-pyrrolidin-1-yl]-methanone] | 51 | 13 |  | 
O=C(c1nn(-c2ccc(Cl)cc2Cl)c2c1COC/C2=C\c1ccc(F)cc1)N1CCC[C@@H]1CO [Cpd 20, (7Z)-[1-(2,4-dichloro-phenyl)-7-(4-fluoro-benzylidene)-1,4,6,7-tetrahydro-pyrano[4,3-c]pyrazol-3-yl]-[(2R)-2-hydroxymethyl-pyrrolidin-1-yl]-methanone] | 27 | 18 |  | 
